From ChEMBL document CHEMBL2407085, “Structure-Activity Relationships and in Vivo Evaluation of Quinoxaline Derivatives for PET Imaging of β-Amyloid Plaques” (ACS Med Chem Lett, 2013)
Active and inactive are the calls of the source. The rule behind the calls is not given here.

What was measured:
Mus musculus [1] = experiment: Ex vivo binding affinity to beta-amyloid plaque in wild-type mouse brain at 5.5 MBq, iv measured at 1 hr by Thioflavin-S fluorescence microscopy; assay type: functional, organism-based; details: 5.5 M, tested as the 18F-labelled form
[2] = biological target: T1, Amyloid-beta precursor protein (Homo sapiens, UniProt P05067); experiment: Displacement of [125I]IMPY from amyloid beta (1 to 42) (unknown origin) after 3 hrs by gamma counting
Mus musculus [3] = experiment: Ex vivo binding affinity to beta-amyloid plaque in Tg2576 mouse brain at 5.5 MBq, iv measured at 1 hr by Thioflavin-S fluorescence microscopy; assay type: functional, organism-based; details: 5.5 M, tested as the 18F-labelled form
[4] = biological target: T1, Amyloid-beta precursor protein; experiment: Ratio of AV-45 Ki to compound Ki for amyloid beta (1 to 42) (unknown origin) […] by gamma counting
[5] = Drug uptake in Alzheimer's disease patient white matter at 370 kBq/100 uL after 1 hr by thioflavin-S based autoradiography; assay type: ADME, tissue-based; details: human, in vitro
Brain [6] = experiment: Ratio of drug uptake in ddY mouse brain at 23.4 to 48.2 kBq, iv measured at 2 mins to drug uptake in ddY mouse brain at 23.4 to 48.2 kBq, iv measured at 60 mins; details: in vivo
Brain [7] = experiment: Biodistribution in Tg2576 ddY mouse brain at 23.4 to 48.2 kBq, iv measured at 2 to 10 mins by autoradiography; assay type: ADME, organism-based; details: in vivo
[8] = biological target: T1, Amyloid-beta precursor protein; experiment: Binding affinity to beta-amyloid plaque in Alzheimer's disease patient brain cortex after 1 hr by thioflavin-S based autoradiography
Brain [9] = experiment: Biodistribution in Tg2576 ddY mouse brain at 23.4 to 48.2 kBq, iv measured at 60 mins by autoradiography; assay type: ADME, organism-based; details: in vivo, 1 h
Mus musculus [10] = experiment: Biodistribution in Tg2576 ddY mouse anterior commissure at 5.5 MBq, iv by autoradiography; assay type: ADME, organism-based; details: in vivo
Mus musculus [11] = experiment: Biodistribution in Tg2576 ddY mouse corpus callosum at 5.5 MBq, iv by autoradiography; assay type: ADME, organism-based; details: in vivo
Mus musculus [12] = experiment: Biodistribution in Tg2576 ddY mouse external capsule at 5.5 MBq, iv by autoradiography; assay type: ADME, organism-based; details: in vivo
Mus musculus [13] = experiment: Biodistribution in Tg2576 ddY mouse olfactory tract at 5.5 MBq, iv by autoradiography; assay type: ADME, organism-based; details: in vivo

T1 sequence (P05067 whole entry): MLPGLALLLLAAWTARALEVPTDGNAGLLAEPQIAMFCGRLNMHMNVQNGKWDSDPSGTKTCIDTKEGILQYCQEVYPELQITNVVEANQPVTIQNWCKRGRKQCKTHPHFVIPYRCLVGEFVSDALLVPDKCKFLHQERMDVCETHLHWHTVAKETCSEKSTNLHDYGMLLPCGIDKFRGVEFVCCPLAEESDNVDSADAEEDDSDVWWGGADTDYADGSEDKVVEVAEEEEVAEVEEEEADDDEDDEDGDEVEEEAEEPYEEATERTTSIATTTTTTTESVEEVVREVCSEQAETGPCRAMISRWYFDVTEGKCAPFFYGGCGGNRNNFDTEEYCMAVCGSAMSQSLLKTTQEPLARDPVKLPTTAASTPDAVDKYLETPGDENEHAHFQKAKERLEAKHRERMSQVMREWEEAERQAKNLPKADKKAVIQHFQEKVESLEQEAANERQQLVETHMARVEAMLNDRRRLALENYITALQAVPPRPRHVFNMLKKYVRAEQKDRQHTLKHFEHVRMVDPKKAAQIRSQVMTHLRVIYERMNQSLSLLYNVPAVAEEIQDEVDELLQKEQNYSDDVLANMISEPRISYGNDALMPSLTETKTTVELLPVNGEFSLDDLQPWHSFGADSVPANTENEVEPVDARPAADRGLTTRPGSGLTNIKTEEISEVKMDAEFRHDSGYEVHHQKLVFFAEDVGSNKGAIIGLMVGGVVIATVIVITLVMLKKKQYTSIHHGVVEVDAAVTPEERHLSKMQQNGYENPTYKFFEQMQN

| SMILES | Drug uptake [5] | Ratio (Brain [6]) | Drug uptake (Brain [7]) | Ki [8] [nM] | Drug uptake (Brain [9]) [% ID/g] | further results |
| --- | --- | --- | --- | --- | --- | --- |
| CN(C)c1ccc(-c2cnc3cc(OCCF)ccc3n2)cc1 | – | – | – | – | – | Activity (Mus musculus [1]): Active; Ki [2]: 0.895 nM; Activity (Mus musculus [3]): Active; Ratio Ki [4]: 10 |
| CNc1ccc(/C=C/c2ccc(OCCOCCOCCF)nc2)cc1 [FLORBETAPIR] | – | – | – | – | – | Ki [2]: 12.8 nM |
| CNc1ccc(-c2cnc3ccc(OCC[18F])cc3n2)cc1 | Active | 2.36 | 4.69 % ID/g | > 242 | 1.48 | – |
| Nc1ccc(-c2cnc3cc(OCC[18F])ccc3n2)cc1 | Active | 2.36 | 4.69 % ID/g | > 242 | 1.48 | – |
| CN(C)c1ccc(-c2cnc3cc(OCC[18F])ccc3n2)cc1 | Not Active | 2.36 | 4.69 % ID/g | 0.895 | 1.48 | Drug uptake (Mus musculus [10]): Active; Drug uptake (Mus musculus [11]): Active; Drug uptake (Mus musculus [12]): Active; Drug uptake (Mus musculus [13]): Active |
| Nc1ccc(-c2cnc3ccc(OCC[18F])cc3n2)cc1 | Active | 2.36 | 4.69 % ID/g | > 242 | 1.48 | – |
| CNc1ccc(/C=C/c2ccc(OCCOCCOCC[18F])nc2)cc1 [FLORBETAPIR F 18] | – | 3.8 | Active | – | – | – |
| CN(C)c1ccc(-c2cnc3ccc(OCC[18F])cc3n2)cc1 | – | 3.91 | 4.69 % ID/g | 111 | 1.48 | – |
| CNc1ccc(-c2cnc3cc(OCC[18F])ccc3n2)cc1 | Not Active | 2.36 | 4.69 % ID/g | 15.7 | 1.48 | – |
